Key:
murine OT1 T cells = assay: Growth of murine OT1 T cells; type: cell-based, mouse; settings: 500 µM, 7 days
Protocol: B16F10 cells were originally purchased from ATCC (catalogue no. CRL-6475) and genetically modified to express OVA, enhanced green fluorescent protein (GFP) and neomycin phosphotransferase. The resulting OVA expression B16F10-OVA cells were cultured in DMEM (catalogue no. 11995065, Thermo Fisher Scientific) containing 0.75 mg ml^−1 G418 sulphate (catalogue no. 10131027, Thermo Fisher Scientific). HEK 293T cells were purchased from Takara Bio (catalogue no. 632180) and cultured in DMEM. SKOV3 was purchased from ATCC (catalogue no. HTB-77) and cultured in McCoy’s 5A (Modified) Medium (catalogue no. 16600082, Thermo Fisher Scientific). Raji-GFP-Luc cells were purchased from Biocytogen (catalogue no. B-HCL-010) and cultured in Roswell Park Memorial Institute (RPMI) 1640 (catalogue no. 21875, Thermo Fisher Scientific). Jurkat cells were purchased from ATCC (catalogue no. TIB-152) and cultured in RPMI 1640. RAW 264.7 cells were purchased from ATCC (catalogue no. TIB-71) and cultured in RPMI 1640. HeLa cells were a gift from P. Lehner (University of Cambridge) and were authenticated using short tandem repeat profiling (Eurofins Genomics). HeLa cells were cultured in DMEM. […] Cell number and viability was determined using the ADAM-MC Automated Cell Counter (NanoEntek), CellDrop Automated Cell Counter (DeNovix) or TC20 Automated Cell Counter (Bio-Rad Laboratories).

murine CD8^+ T cells = assay: Cell growth and viability of murine CD8^+ T cells; type: cell-based; settings: 7 days
Protocol: After 7 days of culture, we assessed the abundance of CD62L^hiCD44^hi (TCM-like) T cells by flow cytometry (Fig. 1a). We additionally determined the effect of each compound on cell growth and viability (Fig. 1b and Extended Data Fig. 1a).
B16F10 cells were originally purchased from ATCC (catalogue no. CRL-6475) and genetically modified to express OVA, enhanced green fluorescent protein (GFP) and neomycin phosphotransferase. The resulting OVA expression B16F10-OVA cells were cultured in DMEM (catalogue no. 11995065, Thermo Fisher Scientific) containing 0.75 mg ml^−1 G418 sulphate (catalogue no. 10131027, Thermo Fisher Scientific). HEK 293T cells were purchased from Takara Bio (catalogue no. 632180) and cultured in DMEM. SKOV3 was purchased from ATCC (catalogue no. HTB-77) and cultured in McCoy’s 5A (Modified) Medium (catalogue no. 16600082, Thermo Fisher Scientific). Raji-GFP-Luc cells were purchased from Biocytogen (catalogue no. B-HCL-010) and cultured in Roswell Park Memorial Institute (RPMI) 1640 (catalogue no. 21875, Thermo Fisher Scientific). Jurkat cells were purchased from ATCC (catalogue no. TIB-152) and cultured in RPMI 1640. RAW 264.7 cells were purchased from ATCC (catalogue no. TIB-71) and cultured in RPMI 1640. HeLa cells were a gift from P. Lehner (University of Cambridge) and were authenticated using short tandem repeat profiling (Eurofins Genomics). HeLa cells were cultured in DMEM. MEFs were isolated from macerated embryonic day (E) 12.5–13.5 embryos. A whole litter of embryos without sex selection were used. Stable transfection with SV40 large T antigen passage 3 was used for immortalization. Cells were subcultured over 17 more passages and maintained in DMEM[63]. All media was supplemented with 10% FCS (catalogue no. 10270106, Gibco), 100 U ml^−1 penicillin and 100 µg ml^−1 streptomycin (catalogue no. P4333, Sigma-Aldrich). […] Cell number and viability was determined using the ADAM-MC Automated Cell Counter (NanoEntek), CellDrop Automated Cell Counter (DeNovix) or TC20 Automated Cell Counter (Bio-Rad Laboratories). […]

CD8^+ T cells = assay: Seahorse analysis of ECAR and OCR (GST, MST, fuel flex test); type: cell-based, human
Protocol: To explore further the metabolic consequences of this observed glutarate-induced reduction in PDHc activity, we performed a glycolysis stress test (GST). Acute effects were determined by treating CD8^+ T cells with DEG for 30 min while plated in the Seahorse XF Analyzer. Chronic effects were determined by performing a standard GST in CD8^+ T cells that had been cultured with DEG for 7 days before assay.
To better understand the consequences of providing glutarate as a fuel for mitochondrial oxidation, we measured cellular oxygen consumption while inhibiting, in different combinations, fatty acid, glucose and glutamine oxidation, the three main fuel sources for mitochondrial oxidation (Extended Data Fig. 4i). This was achieved via injection of etomoxir, UK5099 and Bis-2-(5-phenylacetamido-1,3,4-thiadiazol-2-yl)ethyl sulphide (BPTES), respectively, in cells plated in a Seahorse XF Analyzer.
A Seahorse XFe bioanalyzer was used to measure the OCR and ECAR. A total of 1.5 × 10^5 CD8^+ T cells per well were spun onto poly-D-lysine-coated (catalogue no. P7280, Sigma-Aldrich) Seahorse plates and preincubated at 37 °C for a minimum of 30 min in the absence of CO2 in Seahorse XF RPMI medium, pH 7.4 (10376-100, Agilent), supplemented with 10 mM glucose (catalogue no. A2494001, Thermo Fisher Scientific) and 2 mM glutamine (catalogue no. 25030081, Thermo Fisher Scientific). A minimum of five technical replicates per biological replicate were used. For the MST and GST, OCR and ECAR were measured under basal conditions and after the addition of the following: 750 µM DEG (catalogue no. QB-1473, Combi-block), 0.05% DMSO, 1 μM oligomycin (catalogue no. 75351, Sigma-Aldrich), 1.5 μM FCCP (catalogue no. C2920, Sigma-Aldrich), 100 nM rotenone + 1 μM antimycin A (catalogue nos. R8875 and A8674, Sigma-Aldrich), 10 mM glucose and 50 mM 2-DG (catalogue no. B1048-100, BioVision) as indicated. To assess mitochondrial fuel use, OCR was measured subsequent to the addition of the following drugs in different combinations as indicated: 3 µM BPTES (catalogue no. SML0601, Sigma-Aldrich), 2 µM UK-5099 (catalogue no. PZ0160, Sigma-Aldrich) and 4 µM etomoxir (catalogue no. E1905, Sigma-Aldrich). Assay parameters were as follows: 3 min mix, no wait, 3 min measurement, repeated 3–5 times at basal and after each addition. Measurements were taken using a 96-well Extracellular Flux Analyzer (Seahorse Bioscience).

[1] = fuel flex test, 500 µM DEG, 7 days, other fuel sources limited

SMILES: CCOC(=O)CCCC(=O)OCC [DEG, Diethyl glutarate]
- growth of murine OT1 T cells (murine OT1 T cells): did not affect the growth
- cell viability or proliferation (murine CD8^+ T cells; 400 µM): no negative effects
- cell growth (murine CD8^+ T cells; even at 1-mM concentrations): did not display any negative effects
- maximal OCR, cells treated 7 days with DEG (CD8^+ T cells; 500 µM DEG, 7 days): reduced maximal OCR
- basal oxygen consumption rates (OCRs) (CD8^+ T cells; 500 µM DEG, acute and chronic, with or without glucose and glutamine): either maintained or increased
- basal extracellular acidification rate (ECAR) (CD8^+ T cells; DEG 30 min (acute) or 7 days (chronic)): increases
- glycolytic rate (GST), acute exposure (CD8^+ T cells; DEG 30 min in the Seahorse XF Analyzer): increased glycolytic rate
- effect of FCCP on OCR (MST), cells treated acutely with DEG (CD8^+ T cells; acute DEG): did not have an effect
- glycolytic rate (GST), chronic exposure (CD8^+ T cells; cultured with DEG for 7 days): increased glycolytic rate
- dependence on fatty acid, glucose and glutamine oxidation (CD8^+ T cells; fuel flex test, 500 µM DEG, 7 days): not more dependent
- capacity to oxidize fatty acids (CD8^+ T cells; [1]): increased capacity
- capacity to oxidize glucose (CD8^+ T cells; [1]): increased capacity

From paper PMC10590756, “Glutarate regulates T cell metabolism and anti-tumour immunity” (Nature Metabolism, 2023)
